We go through one compound from patent US4820715A, “Anti-emetic quinuclidinyl benzamides” (Bristol-Myers Company, priority 1987, dated 1989).

pEC50, pIC50: −log10 of the molar value.

Assay [1] addresses dopaminergic (D2) receptors (Rattus norvegicus, UniProt P61169). Nature of the assay: biochemical. It counts as binding. To be noted: striatal rat brain homogenates, ^3H-spiperone, 37° C., 15 minutes; read-out: 3H-Spiperone Displacement IC50. Here is the method:
Rats (150±10 g; Charles River) were decapitated, the corpus striatum dissected out and frozen on dry ice. The tissues were pooled and stored at -80° C. until used. Homogenates (Brinkmann Polytron) of the corpus striatum in cold HEPES.KOH buffer (final pH=7.4) were centrifuged at 39,000×G. The supernatant was discarded and the pellets were re-suspended in HEPES.KOH buffer and re-centrifuged as above.
Tests to determine the Inhibitory Concentration50 (IC50) of the compounds of Formula I and reference compounds versus ^3 H-spiperone were conducted as follows. Tubes containing either 100 μL of buffer mixture (for total binding), 100 μL of buffer mixture plus 100 μL of 10^-4 M D(+)-butaclamol (for blanks, i.e. non-specific binding), or 100 μL of buffer mixture containing 10^-7, 10^-6 or 10^-5 M test compound were prepared. To each were added 100 μL of a solution of ^3 H-spiperone (New England Nuclear) in buffer mixture (2000 c.p.m. in the incubation mixture) and 800 μL of the striatal tissue suspension. The tubes were then diluted to 1 mL with buffer mixture, giving a final concentration of 10^-8, 10^-7 or 10^-6 M test compound and approximately 100 pM ^3 H-spiperone. The samples were incubated at 37° C. for 15 minutes, filtered in vacuo on glass fiber filters and counted by liquid scintillation spectrometry. […] All samples were run in duplicate.

Assay [2] deals with Apomorphine-Induced Emesis. The experiment in a line: Antagonism of Apomorphine-Induced Emesis in Dogs. The assay is classed as in vivo, beagle dogs. The conditions noted are these: Canis lupus familiaris, sc; s.c. 30 minutes prior to apomorphine 0.3 mg/kg; dog; read-out: Antagonism of Apomorphine-Induced Emesis in the Dog ED50. Here is the method: Unfasted beagle dogs of both sexes were used as test subjects. Test compounds and apomorphine were each administered subcutaneously as aqueous solutions, with the test compound being administered 30 minutes prior to the administration of the apormorphine.
Apomorphine was administered at a dose of 0.3 mg/kg. […] All tests were run in at least two dogs.

Assay [3] has as its system field-stimulated guinea pig ileum. Nature of the assay: Gastrokinetic Activity: contraction of field-stimulated guinea pig ileum preparations. Also noted: species or system guinea pig (Hartley). To be noted: Cavia porcellus.
The test system of another assay is Cisplatin-Induced Emesis. Nature of the assay: Antagonism of Cisplatin-Induced Emesis in the Ferret. It counts as in vivo, Fitch ferrets. To be noted: Mustela putorius, iv, 4 h; 3 mg/kg, i.v. × 2; read-out: Antagonism of Cisplatin-Induced Emesis in the Ferret, % Protection.

Sequence of dopaminergic (D2) receptors (P61169 whole entry): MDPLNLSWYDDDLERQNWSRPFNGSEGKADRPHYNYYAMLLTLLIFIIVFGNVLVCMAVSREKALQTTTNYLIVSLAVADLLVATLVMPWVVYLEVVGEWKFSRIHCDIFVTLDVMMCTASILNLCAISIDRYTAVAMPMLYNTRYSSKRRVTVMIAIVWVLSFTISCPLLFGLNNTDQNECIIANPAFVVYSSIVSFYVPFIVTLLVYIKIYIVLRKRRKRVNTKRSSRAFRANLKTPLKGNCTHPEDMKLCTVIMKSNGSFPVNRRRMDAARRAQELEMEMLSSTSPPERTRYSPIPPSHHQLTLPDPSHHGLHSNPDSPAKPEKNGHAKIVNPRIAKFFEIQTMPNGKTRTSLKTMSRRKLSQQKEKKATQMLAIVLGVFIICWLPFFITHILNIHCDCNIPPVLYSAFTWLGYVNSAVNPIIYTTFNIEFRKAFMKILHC

As usually defined, the pIC50 is −log10 of the IC50, conventionally taken in molar units. One may read the ED50 as the dose that gives a 50% effect, or the effect in half of the subjects. The EC30 is the concentration at which the effect reaches the 30% level. For orientation: pEC50 means −log10 of the EC50, conventionally taken in molar units. With `CCN(CC)CCNC(=O)c1cc(Cl)c(N)cc1OCCCC(=O)N(CC)CC` [Example 56, 4-Amino-5-chloro-N-[2-(diethylamino)ethyl]-2-(4-diethylamino-4-oxobutoxy)benzamide], the pIC50 in assay [1] is less than 6.00. Besides, in assay [2], the ED50 is more than 3 mg/kg. In assay [3] (at 30 μM, read-out: Average % Maximum Increase), the activation at 30 µM came to 59%. In assay [3] (effective concentration30, read-out: EC30 (95% C.L.)), the EC30 is 1100 nM. The pEC50 in assay [3] (effective concentration50, read-out: EC50 (95% C.L.)) is 5.14. Moreover, the minimal effective concentration in assay [3] (read-out: Minimum Effective Concentration) came out at 0.1 µM. The inhibition in vivo at 3 mg/kg with Cisplatin-Induced Emesis came to 81%.
